Reference: US20230345946A1, “ANTIVIRAL SURFACES COMPRISING POLYOXOMETALATES AND ZINC MOLYBDATE” (FRIDA GROUP APS, priority 2020, published 2023)

Experiments:
coronaviruses [1] = experiment: EN 14476 (Liquid Disinfectant Test); details: in 2 hours
coronaviruses [2] = experiment: Killing of coronaviruses on treated surfaces versus a control surface; details: in 2 hours
Procedure: 88% more coronaviruses were killed on the treated surfaces than on a control surface, also in 2 hours.

Substance: Paramolybdotungstate [Paramolybdotungstate Mo:W 1:1]
- log reduction of coronaviruses (coronaviruses [1]): 4 log
- more coronaviruses killed on treated surfaces than on a control surface (coronaviruses [2]): 88%
